Data as given in US8309718B2, “4-pyrazolyl-N-arylpyrimidin-2-amines and 4-pyrazolyl-N-heteroarylpyrimidin-2-amines as janus kinase inhibitors” (Incyte Corporation, priority 2007, dated 2012).

biological target: T1, human JAK2 (Homo sapiens, UniProt O60674); assay: In vitro JAK kinase assay (HTRF, phosphorylation of biotinylated peptide); assay type: biochemical; settings: catalytic domain a.a. 828-1132, 30 μM ATP, 500 nM peptide, room temperature 1 hr; read-out: JAK-2 IC50
T1 construct: JAK2 (a.a. 828-1132); His tag (N); made in house; host or cells: insect cells (baculovirus)
Procedure, shortened: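 IC50 from HTRF detection (Eu-Py20 antibody, SA-APC) of biotinylated-peptide phosphorylation (500 nM), run 1 h at RT. Enzyme: N-His human JAK2 kinase domain a.a. 828-1132 from insect cells; ATP 30 μM; buffer 50 mM Tris pH 7.8 with NaCl, DTT, BSA.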

T1 sequence (O60674 828-1132): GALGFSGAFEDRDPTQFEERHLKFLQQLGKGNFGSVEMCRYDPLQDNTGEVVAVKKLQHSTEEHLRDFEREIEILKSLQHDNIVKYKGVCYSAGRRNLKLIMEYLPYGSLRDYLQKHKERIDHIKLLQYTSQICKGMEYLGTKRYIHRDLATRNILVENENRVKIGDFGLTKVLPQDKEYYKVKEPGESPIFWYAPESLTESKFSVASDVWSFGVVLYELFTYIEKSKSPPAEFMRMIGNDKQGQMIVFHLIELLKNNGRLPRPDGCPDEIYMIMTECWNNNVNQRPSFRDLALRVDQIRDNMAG

IC50, < 100 nM:
N#CCC1(n2cc(-c3ccnc(Nc4ccc(C(=O)NC5CCOCC5)cc4)n3)cn2)CC(C#N)C1 (single isomer, unassigned) [Example 289, 4-(4-(1-(3-cyano-1-(cyanomethyl)cyclobutyl)-1H-pyrazol-4-yl)pyrimidin-2-ylamino)-N-(tetrahydro-2H-pyran-4-yl)benzamide]
N#CCC(C1CC1)n1cc(-c2ccnc(Nc3ccc(C(=O)N4CCC(C#N)CC4)cc3)n2)cn1 (racemic) [Example 318, 1-[4-({4-[1-(2-cyano-1-cyclopropylethyl)-1H-pyrazol-4-yl]pyrimidin-2-yl}amino)benzoyl]piperidine-4-carbonitrile]
N#CCC1(n2cc(-c3ccnc(Nc4ccc(-n5cccn5)cc4)n3)cn2)CCN(S(=O)(=O)C2CC2)CC1 [Example 28, 2-(4-(4-(2-(4-(1H-pyrazol-1-yl)phenylamino)pyrimidin-4-yl)-1H-pyrazol-1-yl)-1-(cyclopropylsulfonyl)piperidin-4-yl)acetonitrile]
CCS(=O)(=O)N1CCC(CC(CC#N)n2cc(-c3ccnc(Nc4ccc(N5CCOCC5)cc4)n3)cn2)CC1 (racemic) [Example 42, 4-(1-(ethylsulfonyl)piperidin-4-yl)-3-(4-(2-(4-morpholinophenylamino)pyrimidin-4-yl)-1H-pyrazol-1-yl)butanenitrile]
N#CCC(C1CC1)n1cc(-c2ccnc(Nc3ccc(C(=O)N4C5CC6CC4CC(C5)O6)cc3)n2)cn1 (racemic) [Example 262, 3-cyclopropyl-3-(4-(2-(4-(2-oxa-6-azatricyclo[3.3.1.1(3,7)]dec-6-ylcarbonyl)phenyl)aminopyrimidin-4-yl)-1H-pyrazol-1-yl)propanenitrile]
N#CCC(C1CCCC1)n1cc(-c2ccnc(Nc3cccc(C(=O)N4CCC(c5cccc(F)c5)C4)c3)n2)cn1 (mixture of isomers) [Example 157, 3-cyclopentyl-3-(4-(2-(3-(3-(3-fluorophenyl)pyrrolidine-1-carbonyl)phenylamino)pyrimidin-4-yl)-1H-pyrazol-1-yl)propanenitrile]
CCS(=O)(=O)N1CCC(CC(CC#N)n2cc(-c3nc(Nc4ccccc4)ncc3C)cn2)CC1 (racemic) [Example 50, 4-(1-(ethylsulfonyl)piperidin-4-yl)-3-(4-(5-methyl-2-(phenylamino)pyrimidin-4-yl)-1H-pyrazol-1-yl)butanenitrile]
N#CCC1(n2cc(-c3ccnc(Nc4ccc(N5CCOCC5)cc4)n3)cn2)CN(S(=O)(=O)C2CC2)C1 [Example 93, 2-(1-(cyclopropylsulfonyl)-3-(4-(2-(4-morpholinophenylamino)pyrimidin-4-yl)-1H-pyrazol-1-yl)azetidin-3-yl)acetonitrile]
COc1cnc(Nc2ccc(N3CCOC3=O)cc2)nc1-c1cnn(C(CC#N)C2CCCC2)c1 (racemic) [Example 136, 3-cyclopentyl-3-(4-(5-methoxy-2-(4-(2-oxooxazolidin-3-yl)phenylamino)pyrimidin-4-yl)-1H-pyrazol-1-yl)propanenitrile]
N#CCC1(n2cc(-c3ccnc(Nc4ccc(N5CCCOC5=O)cc4)n3)cn2)CC(C#N)C1 (single isomer, unassigned) [Example 337, 3-(cyanomethyl)-3-[4-(2-{[4-(2-oxo-1,3-oxazinan-3-yl)phenyl]amino}pyrimidin-4-yl)-1H-pyrazol-1-yl]cyclobutanecarbonitrile]
N#CCC(C1CCCC1)n1cc(-c2ccnc(Nc3cccc(NC(=O)CNCC4CC4)c3)n2)cn1 (racemic) [Example 241, N-(3-(4-(1-(2-cyano-1-cyclopentylethyl)-1H-pyrazol-4-yl)pyrimidin-2-ylamino)phenyl)-2-(cyclopropylmethylamino)acetamide]
N#CCC(C1CCCC1)n1cc(-c2ccnc(Nc3cccc(NC(=O)CN4CCN(CCO)CC4)c3)n2)cn1 (racemic) [Example 240, N-(3-(4-(1-(2-cyano-1-cyclopentylethyl)-1H-pyrazol-4-yl)pyrimidin-2-ylamino)phenyl)-2-(4-(2-hydroxyethyl)piperazin-1-yl)acetamide]
COc1cnc(Nc2cccc(C(=O)N3CCOCC3)c2)nc1-c1cnn(C(CC#N)C2CC2)c1 (racemic) [Example 328, 3-cyclopropyl-3-[4-(5-methoxy-2-{[3-(morpholin-4-ylcarbonyl)phenyl]amino}pyrimidin-4-yl)-1H-pyrazol-1-yl]propanenitrile]
Cn1ccc(S(=O)(=O)N2CCC(CC(CC#N)n3cc(-c4ccnc(Nc5ccc(C(N)=O)cc5)n4)cn3)CC2)n1 (racemic) [Example 47, 4-(4-(1-(1-cyano-3-(1-(1-methyl-1H-pyrazol-3-ylsulfonyl)piperidin-4-yl)propan-2-yl)-1H-pyrazol-4-yl)pyrimidin-2-ylamino)benzamide]
N#CCC(C1CCCC1)n1cc(-c2ccnc(Nc3cccc(C(=O)N4CCC(O)(c5ccccc5)CC4)c3)n2)cn1 (racemic) [Example 150, 3-cyclopentyl-3-(4-(2-(3-(4-hydroxy-4-phenylpiperidine-1-carbonyl)phenylamino)pyrimidin-4-yl)-1H-pyrazol-1-yl)propanenitrile]
N#CCC(C1CCCC1)n1cc(-c2ccnc(Nc3ccc(C(N)=O)cc3)n2)cn1 (racemic) [Example 33, 4-(4-(1-(2-cyano-1-cyclopentylethyl)-1H-pyrazol-4-yl)pyrimidin-2-ylamino)benzamide]
N#CCC1(n2cc(-c3ccnc(Nc4ccc(N5CCOCC5)cc4)n3)cn2)CCN(C(=O)c2ccno2)CC1 [Example 94, 2-(1-(isoxazole-5-carbonyl)-4-(4-(2-(4-morpholinophenylamino)pyrimidin-4-yl)-1H-pyrazol-1-yl)piperidin-4-yl)acetonitrile]
N#CCC(CC1CCN(C(=O)c2ccc(F)cc2F)CC1)n1cc(-c2ccnc(Nc3ccc(N4CCOCC4)cc3)n2)cn1 (racemic) [Example 5, 4-(1-(2,4-difluorobenzoyl)piperidin-4-yl)-3-(4-(2-(4-morpholinophenylamino)pyrimidin-4-yl)-1H-pyrazol-1-yl)butanenitrile]
CCS(=O)(=O)N1CC(CC#N)(n2cc(-c3ccnc(Nc4ccc(C(=O)N5CCC(O)CC5)cc4)n3)cn2)C1 [Example 256, 2-(1-(ethylsulfonyl)-3-(4-(2-(4-(4-hydroxypiperidine-1-carbonyl)phenylamino)pyrimidin-4-yl)-1H-pyrazol-1-yl)azetidin-3-yl)acetonitrile]
Cn1ccc(S(=O)(=O)N2CCC(CC(CC#N)n3cc(-c4ccnc(Nc5ccccc5)n4)cn3)CC2)n1 (racemic) [Example 57, 4-(1-(1-methyl-1H-pyrazol-3-ylsulfonyl)piperidin-4-yl)-3-(4-(2-(phenylamino)pyrimidin-4-yl)-1H-pyrazol-1-yl)butanenitrile]
CC(=O)N1CCN(C(=O)c2ccc(Nc3nccc(-c4cnn(C(CC#N)C5CC5)c4)n3)cc2)CC1 (racemic) [Example 269, 3-(4-(2-(4-(4-acetylpiperazine-1-carbonyl)phenylamino)pyrimidin-4-yl)-1H-pyrazol-1-yl)-3-cyclopropylpropanenitrile]
N#CCC1(n2cc(-c3ccnc(Nc4ccc(-c5cnco5)cc4)n3)cn2)CC(C#N)C1 (single isomer, unassigned) [Example 342, 3-(cyanomethyl)-3-[4-(2-{[4-(1,3-oxazol-5-yl)phenyl]amino}pyrimidin-4-yl)-1H-pyrazol-1-yl]cyclobutanecarbonitrile]
N#CCC(CC1CCN(C(=O)c2ccc(F)cc2F)CC1)n1cc(-c2ccnc(Nc3cccc(-c4cnco4)c3)n2)cn1 (racemic) [Example 7, 4-(1-(2,4-difluorobenzoyl)piperidin-4-yl)-3-(4-(2-(3-(oxazol-5-yl)phenylamino)pyrimidin-4-yl)-1H-pyrazol-1-yl)butanenitrile]
COc1cnc(Nc2ccc(N3CCCCC3=O)cc2)nc1-c1cnn(C(CC#N)C2CCCC2)c1 (racemic) [Example 135, 3-cyclopentyl-3-(4-(5-methoxy-2-(4-(2-oxopiperidin-1-yl)phenylamino)pyrimidin-4-yl)-1H-pyrazol-1-yl)propanenitrile]
CCS(=O)(=O)N1CC(CC#N)(n2cc(-c3ccnc(Nc4ccc(C(=O)N5CCOCC5)cc4)n3)cn2)C1 [Example 255, 2-(1-(ethylsulfonyl)-3-(4-(2-(4-(morpholine-4-carbonyl)phenylamino)pyrimidin-4-yl)-1H-pyrazol-1-yl)azetidin-3-yl)acetonitrile]
CO[C@H]1CCN(C(=O)c2ccc(Nc3nccc(-c4cnn(C(CC#N)C5CC5)c4)n3)cc2)C1 (mixture of isomers) [Example 265, 3-cyclopropyl-3-(4-(2-(4-((S)-3-methoxypyrrolidine-1-carbonyl)phenylamino)pyrimidin-4-yl)-1H-pyrazol-1-yl)propanenitrile]
N#CCC(C1CCCC1)n1cc(-c2ccnc(Nc3ccc(N4CCCS4(=O)=O)cc3)n2)cn1 (racemic) [Example 192, 3-cyclopentyl-3-(4-(2-(4-(1,1-dioxidoisothiazolidin-2-yl)phenyl)aminopyrimidin-4-yl)-1H-pyrazol-1-yl)propanenitrile]
